Experimental data from US20060275826A1, “Artificial antibody comprising complementary peptide” (priority 2003, published 2006).
pIC50: −log10 of the molar value. No end group written: not given here.

Experiments:
[1] = target: T1, HIV transcriptase (HIV-RT) (Human immunodeficiency virus type 1 group M subtype B, UniProt P04585); experiment: Sandwich ELISA detecting HIV-RT with complementary peptides as artificial antibody peptides; assay type: binding; conditions: wells coated with ESLA 2340, detection with biotin-labeled TLMA 2993 and peroxidase-labeled avidin
T1 construct: reverse transcriptase (abbreviated as RT hereinafter)
Experimental: Wells of a 96 well plate were coated with ESLA 2340 in advance. After adding a diluted solution of HIV-RT in each well and allowing the plate to stand overnight at 4° C., the plate was washed and biotin-labeled TLMA 2993 was added to each well. The plate was allowed to stand for 1 hour at room temperature. After washing the plate again, peroxidase-labeled avidin was added to allow it to react at room temperature for 1 hour. After washing the plate to remove unreacted avidin, a color development reaction was performed by a conventional method at room temperature by adding a color developing reagent of peroxidase.

[2] = target: T2, reverse transcriptase (RT) of human immunodeficiency virus-1 (HIV-1) (Human immunodeficiency virus type 1 group M subtype B, UniProt P04585); experiment: HIV-RT activity assay (primer tRNALys3 elongation on viral genome RNA, autoradiography); assay type: biochemical; conditions: for pIC50: 50% suppression concentrations against RT, 50 ng HIV-RT, 37° C., 15 minutes; for suppressing activity against RT activity: result in words
T2 construct: reverse transcriptase (abbreviated as RT hereinafter)
From the text: Complementary peptides against peptides at each site of reverse transcriptase (abbreviated as RT hereinafter) of a pathogenic virus of AIDS, human immunodeficiency virus-1 (HIV-1), were automatically designed using an analysis program (MIMETIC), and the peptides shown in Table 1 were designed. The designed peptides were synthesized by a conventional solid phase method by allowing 9-fluorenylmethoxycarbonyl (Fmoc) amino acids to sequentially bind using a peptide synthesizer (trade name: AMS 422 Multiple Peptide Synthesizer, manufactured by ABiMED Co.). The synthesized peptide was released from the solid support by a conventional method, and protective groups were removed. The peptide obtained was recovered by ether precipitation, and was purified with reversed phase HPLC after removing ether by drying. A culture supernatant of PLB cells (established human lymphocyte strain) infected with HIV-1 was placed on a top layer of layered 65% and 15% sucrose solutions in a ultracentrifuge tube, and HIV-1 particles were retrieved by ultracentrifugation for 1 hour at 26,500 rpm. Virus RNA was extracted by a guanidine isothiocyanate method (Chomezynski, P. and Sacchi, N., RNA Isolation from Cultured cells, Analytical Biochemistry, 162: 156-159, 1987), and the extract was used by dissolving in 5 mM Tris buffer (pH 7.5). The amount of the whole length virus genome RNA contained in the total RNA sample was quantified according to a conventional ribonuclease protection method (Kaye, J. F. et al., Cis-acting Sequences Involved in Human Immunodeficiency Virus Type 1 RNA Packaging, J. Virol, 69: 6588-6592, 1995; and Huang, Y. et al., The Role of Nucleocapsid and U5 stem/A rich Loop Sequences in tRNA (3Lys) Genomic Placement and Initiation of Reverse Transcription in Human Immunodeficiency Virus Type 1, J. Virol., 72: 3907-3915, 1997). The virus genome binds to tRNA^Lys3 in the cell, and can be used for measuring RT activity. The RNA genome of about 5×10^7 molecules was allowed to react with 50 ng of HIV-RT, 10 units of […] and dNTP's (deoxynucleic acid) at 37° C. for 15 minutes in 20 μl of RTbuffer (50 mMTris-HCl, pH 7.5, 60 mM KCl, 3 mM MgCl2 and 10 mM DTT). The sequence at the tip of the molecule comprises six bases of CTGCTA. One base was added to tRNA^Lys3 using ^32P-dCTP with a radioactivity of 5 μci, and 6 bases were further added by allowing 0.2 mM of dCTP, 0.2 mM of dTTP, 5 μCi of ^32p-dGTP and 0.05 mM of ddATP to react. The elongated primer was retrieved by ethanol precipitation, and was analyzed by auto-radiography through electrophoresis on 6% polyacrylamide gel containing 7 M urea.

[3] = target: T3, Pro-carboxypeptidase R (ProCPR) (Homo sapiens, UniProt Q96IY4); experiment: Activation of ProCPR to CPR by thrombin-thrombomodulin (T/TM) complex, hippuryl-L-arginine substrate; assay type: biochemical; conditions: 1 μM of peptide
T3 sequence (Q96IY4 23-423 limits assumed): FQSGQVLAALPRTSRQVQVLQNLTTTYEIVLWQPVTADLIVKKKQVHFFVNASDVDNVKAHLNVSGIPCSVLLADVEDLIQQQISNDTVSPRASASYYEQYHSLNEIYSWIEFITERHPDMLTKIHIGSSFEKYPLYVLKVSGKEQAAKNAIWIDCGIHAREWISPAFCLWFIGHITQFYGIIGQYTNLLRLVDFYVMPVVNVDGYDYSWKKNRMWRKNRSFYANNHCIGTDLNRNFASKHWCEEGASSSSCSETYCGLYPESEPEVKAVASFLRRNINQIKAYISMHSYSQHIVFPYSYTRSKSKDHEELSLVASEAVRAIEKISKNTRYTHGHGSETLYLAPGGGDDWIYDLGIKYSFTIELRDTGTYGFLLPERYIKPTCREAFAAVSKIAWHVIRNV
From the text: Pro-carboxypeptidase R (abbreviated as ProCPR hereinafter) is converted into active carboxypeptidase R (abbreviated as CPR hereinafter) by trimming a sequence from an amino terminal to arginine 92 with a trypsin-like enzyme such as thrombin and plasmin. A complementary peptide corresponding to the amino acid sequence comprising 30, 24, 20, 15 or 11 amino acids from amino acid 87 counted from the amino terminal of the ProCPR was automatically designed using the analysis program MIMETIC of the invention, and the peptides shown in Table 2 were designed. An action on the activation reaction of ProCPR by a thrombin-thrombomodulin complex (abbreviated as T/TM complex hereinafter) was analyzed with respect to the peptides (the peptides in notes (1) and (2) in Table 2) comprising 20 and 15 amino acids of the complementary peptides described above. The designed peptides were synthesized by a conventional solid state method by which 9-fluorenylmethoxycarbonyl (Fmoc) amino acids are sequentially linked using a peptide synthesizer (trade name: AMS 422 Multiple Peptide Synthesizer, manufactured by ABiMED Co.) The synthesized peptide was released by a conventional method, and protecting groups were removed. The peptide obtained was retrieved by ether precipitation, and was purified by reversed phase HPLC after removing ether by drying. The purified peptides comprising 20 and 15 amino acids were allowed to react with ProCPR for 10 minutes at room temperature, followed by allowing the T/TM complex to react. After a reaction for 45 minutes at 37° C. by adding hippuril-L-arginine which is substrate of CPR, free hippuric acid was measured according to a reported method (Komura, H., et al., Effect of Anticoagulants in Colorimetric Assay for Basic Carboxypeptidase, Microbiol. Immunol., 46: 115-117, 2002). When 20-mer peptide and 15-mer peptide were added, activation of ProCPR to CPR with the T/TM complex was suppressed by adding 1 μM of respective peptides. […]

[4] = target: T4, ProCPR (Homo sapiens, UniProt Q96IY4); experiment: Surface plasmon resonance analyzer (Biacore) reactivity to ProCPR; assay type: binding
T4 sequence (Q96IY4 23-423 limits assumed): T3 sequence (Q96IY4 23-423 limits assumed)

[5] = target: T5, ProCPR (Homo sapiens, UniProt Q96IY4); experiment: Plate ELISA: VGG-coated plate, human plasma containing ProCPR, biotin-labeled 10G1 antibody; assay type: binding; conditions: plate coated with VGG, diluted human plasma
T5 construct: diluted human plasma containing ProCPR; from tissue; host or cells: human plasma
T5 sequence (Q96IY4 115-423): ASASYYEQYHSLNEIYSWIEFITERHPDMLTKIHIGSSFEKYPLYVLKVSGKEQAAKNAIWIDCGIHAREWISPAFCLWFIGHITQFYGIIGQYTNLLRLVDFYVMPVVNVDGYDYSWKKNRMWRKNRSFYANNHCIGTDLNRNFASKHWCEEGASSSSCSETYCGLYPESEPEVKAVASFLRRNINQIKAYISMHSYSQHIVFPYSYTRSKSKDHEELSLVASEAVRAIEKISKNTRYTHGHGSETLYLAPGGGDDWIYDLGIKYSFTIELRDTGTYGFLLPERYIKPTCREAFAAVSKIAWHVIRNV
Experimental: After coating the plate with VGG and washing the plate, diluted human plasma containing ProCPR was added to the plate and was allowed to react for 1 hour at room temperature. After removing excess plasma by washing the plate, 10G1 as a […] was added followed by allowing it to react for 1 hour at room temperature. Excess 10G1 antibody was removed by washing the plate, and remaining 10G1 antibody was allowed to react by adding peroxidase-labeled avidin. After removing unreacted avidin by washing, the reaction solution was made to develop a color by a conventional method depending on the strength of the enzyme reaction of peroxidase by adding a peroxidase color development reagent, and the intensity of the color was measured with a plate reader.

Question: What does the source list for ESLALYKSLQQSEMLLELEL [ESLA2340]?
Answer: color development depending on concentration of HIV-RT (sandwich ELISA) [1]: A color was developed depending on the concentration of HIV-RT; pIC50 [2]: 4.77; suppressing activity against RT activity [2]: confirmed to suppress the activity of transcriptase

Question: With PSTWPTFLKFQLK [PSTW1594, PSTWPTFLKFQLK] as the sequence, how does the pIC50 [2] read?
Answer: 4.82

Question: Which results are given for “TLMALELKGKLLLAGLAPSAFLPLSFPEL [TLMA2993]”?
Answer: color development depending on concentration of HIV-RT (sandwich ELISA) [1]: A color was developed depending on the concentration of HIV-RT; pIC50 [2]: 4.82; suppressing activity against RT activity [2]: confirmed to suppress the activity of transcriptase

Question: How did the “suppression of activation of ProCPR to CPR with the T/TM complex” value (“suppression of activation of ProCPR” for short) [3] turn out when “VGGRRTRARRVLLLVLTETH [complementary (mimetic) peptide to ProCPR positions 87-106]” was run?
Answer: confirmed to suppress activation of ProCPR

Question: And the “suppression of activation of ProCPR” value ([3]; listed as 20-mer peptide)?
Answer: suppressed

Question: And the “reactivity to ProCPR by surface plasmon resonance” value [4]?
Answer: confirmed to be reactive to ProCPR

Question: And the “color development depending on concentration of plasma containing ProCPR (ELISA)” value [5]?
Answer: color was developed depending on the concentration of the plasma

Question: Which “suppression of activation of ProCPR” value [3] does the source give for “VSRGRRRDRRILMII [15-mer peptide, complementary (mimetic) peptide to ProCPR positions 87-101]” here?
Answer: suppressed
